Test results published in paper PMC6017792, “Hydrazone Derivatives Enhance Antileishmanial Activity of Thiochroman-4-ones” (Molecules : A Journal of Synthetic Chemistry and Natural …, 2017).

What was measured:
in vitro = conditions: human
Procedure: (§1) Cells exposed to compounds or standard drug were incubated 72 h at 37 °C and 5% of CO2. Cytotoxic activity of each compound was determined according to the effect on the cell viability by the MTT microenzymatic method in which 3-(4,5-dimethylthiazol-2-yl)-2,5-diphenyltetrazolium bromide is reduced to a purple product named formazan by mitochondrial enzyme succinate dehydrogenase. Thus, 10 μL/well of MTT solution (5 mg/mL) were added to each well of exposed and unexposed cells, and plates were incubated at 37 °C, 5% CO2 during 3 h. The reaction was stopped by adding 100 μL/well of isopropanol with 50% and 10% of sodium dodecyl sulfate. The concentration of formazan was determined spectrophotometrically at 570 nm (Varioskan Flash Multimode Reader, Thermo Scientific, Waltham, MA, USA) and intensity of color (absorbance) was registered as O.D. Cells exposed to amphotericin B were used as control for toxicity (positive control) while cell incubated in absence of any compound or drug were used as control for viability (negative control). Non-specific absorbance was corrected by subtracting absorbance (O.D.) of the blank. Determinations were done by triplicate in at least two independent experiments.
(§2) Cytotoxicity was determined according to viability and mortality percentages obtained for each experimental condition (synthetized compounds, amphotericin B and culture medium). […] Initially, viability percentages were calculated by Equation (1), where the O.D. of control well, corresponds to 100% of viability:% viability = (O.D. exposed cells/O.D. unexposed cells) × 100(1)

[1] = test system: intracellular amastigotes of L. panamensis; test: in vitro antileishmanial activity on intracellular amastigotes (EGFP strain in U-937 cells, flow cytometry); format: cell-based, Leishmania panamensis; conditions: for IS (Index of Selectivity = LC50/EC50): LC50 (U-937) / EC50 (L. panamensis amastigotes); for EC50: intracellular amastigotes of L. panamensis (MHOM/CO/87/UA140-EGFP) in U-937 cells, 72 h, mean ± SD; for antileishmanial activity (in words): 10-50 µM moderately active, > 50 µM low activity
Procedure: Antileishmanial activity of compounds was determined according to the ability to reduce the infection by L. panamensis parasites, a Leishmania species that is highly prevalent in the Central America and Colombia as causative agent of C.L. For this, the antileishmanial activity was tested on intracellular amastigotes of L. panamensis transfected with the green fluorescent protein gene (MHOM/CO/87/UA140-EGFP strain). […] Plates were incubated at 34 °C and 5% CO2 for 3 h and then cells were washed twice with PBS to eliminate not internalized parasites. […] Cells were washed two times employing PBS, as previously, and after the last wash, the supernatant was discarded and cells were suspended in 500 μL of PBS.
Cells were analyzed by flow cytometry employing a flow cytometer (Cytomics FC 500MPL, Beckman Coulter. Pasadena, CA, USA) reading at 488 nm (exciting) and 525 nm (emitting) over an argon laser and counting 10,000 events. Infected cells were determined according the events for green fluorescence (parasites). All determinations for each compound and standard drug were carried out by triplicate, in two experiments. Infected cells exposed to amphotericin B were used as control for antileishmanial activity (positive control) while infected cells incubated in absence of any compound or drug were used as control for infection (negative control). Nonspecific fluorescence was corrected by subtracting fluorescence of unstained cells. Determinations were done by triplicate in at least two independent experiments.
Antileishmanial activity was determined according reduction of percentage of fluorescent parasites determined according to the median fluorescence intensity (MFI), obtained for each experimental condition by cytometry. The parasite values for each concentration of compound were calculated by Equation (3), where the % of parasites in the control well, corresponds to 100% of parasites:% parasites = (MFI exposed parasites/MFI unexposed parasites) × 100(3)
Results of antileishmanial activities were expressed as the EC50 calculated by Probit method. The compound were classified according to EC50 values using a scale defined by us, based on the hit criteria proposed by Katsuno et al.[25].

[2] = test system: human monocytes (U-937 ATCC CRL-1593.2); test: in vitro; conditions: for CC50: read-out: LC50, U-937 cells, 72 h, MTT, mean ± SD
Procedure: as §1, §2

Row | SMILES | CC50 at 72 h (in vitro) | IS (Index of Selectivity = LC50/EC50) [1] | EC50 ([1]; Leishmania panamensis) | CC50 [2] | EC50 [1] | antileishmanial activity (in words) ([1]; […]) | cytotoxic activity (in words) ([2]; scale b53: LC50 < 100 µM high toxicity, 100-200 µM moderate, > 200 µM potential nontoxicity) | antileishmanial activity (in words) ([1]; scale b56: EC50 < 10 µM highly active)
1 | NC(=O)N/N=C1\CC(c2ccccc2)Sc2ccccc21 (stereo not shown) [Compound 19, (E)-2-(2-Phenylthiochroman-4-ylidene)hydrazinecarboxamide] | 100 ± 19.8 µM | 18.6 | 5.4 ± 1 µM |  |  |  |  | 
2 | O=C1CCSc2ccccc21 [Compound 1, thiocroman-4-one] |  |  |  | > 1000 µM | 344 ± 75.6 µM |  |  | 
3 | O=C(N/N=C1\CC(c2ccccc2)Sc2ccccc21)c1ccccc1 (stereo not shown) [Compound 21, (E)-N′-(2-Phenylthiochroman-4-ylidene)benzohydrazide] | 529 ± 7 µM |  | 28.5 ± 2.8 µM |  |  |  |  | 
4 | CC1C/C(=N\NC(=O)c2ccc(N)cc2)c2cc(F)ccc2S1 (stereo not shown) [Compound 18, (E)-4-Amino-N′-(6-fluoro-2-methylthiochroman-4-ylidene)benzohydrazide] | 31 ± 7 µM | 0.2 | 161 ± 2.4 µM |  |  |  |  | 
5 | O=C(N/N=C1\CCSc2ccc(F)cc21)c1ccccc1 [Compound 10, (E)-N′-(6-Fluorothiochroman-4-ylidene)benzohydrazide] | > 666 µM | >17.6 | 37.3 ± 3.3 µM |  |  |  |  | 
6 | O=C(N/N=C1\CCSc2ccc(F)cc21)c1ccncc1 [Compound 11, (E)-N′-(6-Fluorothiochroman-4-ylidene)isonicotinohydrazide] | > 664 µM | >16.6 | 39.9 ± 5.3 µM |  |  |  |  | 
7 | CC1C/C(=N\NC(=O)c2ccncc2)c2cc(F)ccc2S1 (stereo not shown) [Compound 17, (E)-N′-(6-Fluoro-2-methylthiochroman-4-ylidene)isonicotinohydrazide] | 203 ± 25.4 µM | 2.1 | 98.9 ± 19.3 µM |  |  |  |  | 
8 | CC1CC(=O)c2ccccc2S1 (stereo not shown) [Compound 3, 2-Methylthiochroman-4-one] | 604 ± 86.4 µM | 1.4 | 445 ± 7.3 µM |  |  |  |  | 
9 | CC1C/C(=N\NC(=O)c2ccccc2)c2ccccc2S1 (stereo not shown) [Compound 13, (E)-N′-(2-Methylthiochroman-4-ylidene)benzohydrazide] | 150 ± 24.3 µM | 3.9 | 38.1 ± 16.2 µM |  |  |  |  | 
10 | O=C(N/N=C1\CC(c2ccccc2)Sc2ccccc21)c1ccncc1 (stereo not shown) [Compound 22, (E)-N′-(2-Phenylthiochroman-4-ylidene)isonicotinohydrazide] | > 556 µM | >33.9 | 16.4 ± 3.6 µM |  |  |  |  | 
11 | CC1C/C(=N\NC(=O)c2ccncc2)c2ccccc2S1 (stereo not shown) [Compound 14, (E)-N′-(2-Methylthiochroman-4-ylidene)isonicotinohydrazide] | > 672 µM | >11.9 | 56.6 ± 0.7 µM |  |  |  |  | 
12 | O=C(N/N=C1\CCSc2ccccc21)c1ccccc1 [Compound 6, (E)-N′-(Thiochroman-4-ylidene)benzohydrazide] | 248 ± 49.6 µM | 3.9 | 63.7 ± 9.2 µM |  |  |  |  | 
13 | NNC(N)=S [thiosemicarbazide, reference compound] |  |  |  | > 1000 µM | > 267 µM | inactive |  | 
14 | NC(=S)N/N=C1\CC(c2ccccc2)Sc2ccccc21 (stereo not shown) [Compound 20, (E)-2-(2-Phenylthiochroman-4-ylidene)hydrazinecarbothioamide] | 50.1 ± 4.1 µM | 9.8 | 5.1 ± 1.3 µM |  |  |  |  | 
15 | O=C(N/N=C1\CCSc2ccccc21)c1ccncc1 [Compound 7, (E)-N′-(Thiochroman-4-ylidene)isonicotinohydrazide] | 706 µM | >12.4 | 56.8 ± 4.54 µM |  |  |  |  | 
16 | CC1C/C(=N\NC(=O)c2ccc(N)cc2)c2ccccc2S1 (stereo not shown) [Compound 15, (E)-4-Amino-N′-(2-methylthiochroman-4-ylidene)benzohydrazide] | 102 ± 15.1 µM | 1.1 | 91.8 ± 13.5 µM |  |  |  |  | 
17 | CC1C/C(=N\NC(=O)c2ccccc2)c2cc(F)ccc2S1 (stereo not shown) [Compound 16, (E)-N′-(6-Fluoro-2-methylthiochroman-4-ylidene)benzohydrazide] | > 636 µM |  | 43.9 ± 4.5 µM |  |  |  |  | 
18 | Nc1ccc(C(=O)N/N=C2\CCSc3ccc(F)cc32)cc1 [Compound 12, (E)-4-Amino-N′-(6-fluorothiochroman-4-ylidene)benzohydrazide] | > 634 µM | >6.6 | 95.5 ± 6.9 µM |  |  |  |  | 
19 | C[C@@H]1[C@H](O)[C@@H](C)/C=C/C=C/C=C/C=C/C=C/C=C/C=C/[C@H](O[C@@H]2O[C@H](C)[C@@H](O)[C@H](N)[C@@H]2O)C[C@@H]2O[C@](O)(C[C@@H](O)C[C@@H](O)[C@H](O)CC[C@@H](O)C[C@@H](O)CC(=O)O[C@H]1C)C[C@H](O)[C@H]2C(=O)O [Amphotericin B, reference compound] | 39.6 ± 8.7 µM |  | 0.32 µM |  |  |  |  | 
20 | O=C1CC(c2ccccc2)Sc2ccccc21 (stereo not shown) [Compound 5, 2-Phenylthiochroman-4-one] | > 41.6 µM | >0.9 | 44.1 ± 0.9 µM |  |  |  | high cytotoxic activity | moderate antileishmanial activity
21 | O=C1CCSc2ccc(F)cc21 [Compound 2, 6-Fluorothiochroman-4-one] | > 706 µM | <6.5 | > 110 µM |  |  |  |  | 
22 | CC1CC(=O)c2cc(F)ccc2S1 (stereo not shown) [Compound 4, 6-Fluoro-2-methylthiochroman-4-one] | 579 ± 59.1 µM | 1.4 | 422 ± 9.2 µM |  |  |  |  | 
23 | NC(=O)N/N=C1\CCSc2ccccc21 [Compound 8, (E)-2-(Thiochroman-4-ylidene)hydrazinecarboxamide] | 637 ± 37.9 µM | 7.0 | 91.5 ± 33.4 µM |  |  |  |  | 
